According to patent publication US20240269139A1, “COMPOUNDS FOR TARGETED PROTEIN DEGRADATION OF KINASES” (DANA-FARBER CANCER INSTITUTE, INC., priority 2020, published 2024):
Values joined by “and” are separate entries in the source; they are usually repeats but may differ in a detail not shown here. Equal values may be shown once. Read-outs that look alike come from different tables or passages of the source.

Assays:
Assay type in all cases: cell-based
[1] = molecular target: T1, protein kinases (human kinome) (Homo sapiens, UniProt O14965)
T1 sequence (O14965 1-403): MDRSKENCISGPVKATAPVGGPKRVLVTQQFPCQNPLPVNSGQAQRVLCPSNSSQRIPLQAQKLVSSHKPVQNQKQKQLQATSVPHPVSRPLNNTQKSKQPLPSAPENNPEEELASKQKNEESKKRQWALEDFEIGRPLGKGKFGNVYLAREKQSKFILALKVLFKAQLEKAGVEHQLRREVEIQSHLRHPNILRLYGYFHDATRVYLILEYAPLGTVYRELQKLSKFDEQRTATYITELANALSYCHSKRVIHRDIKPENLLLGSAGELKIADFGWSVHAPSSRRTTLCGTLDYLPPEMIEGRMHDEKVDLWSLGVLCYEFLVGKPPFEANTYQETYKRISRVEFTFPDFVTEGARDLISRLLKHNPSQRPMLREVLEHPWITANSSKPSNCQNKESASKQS

[2] = system: protein kinases (human kinome); details: for kinases the bifunctional compound degrades: as stated for the structure in the embodiments; for Kinase hits: kinases significantly downregulated vs DMSO (fold change cutoff −1.25, P-value<0.01), ≤8 h, 0.1-5 μM degrader, 7 cell lines; for Total no. kinase hits: number of degraded kinases per library compound
[3] = molecular target: protein kinases (human kinome) (Homo sapiens, UniProt Q2M2I8)
protein kinases (human kinome) (Homo sapiens, UniProt Q2M2I8), sequence (Q2M2I8 whole entry): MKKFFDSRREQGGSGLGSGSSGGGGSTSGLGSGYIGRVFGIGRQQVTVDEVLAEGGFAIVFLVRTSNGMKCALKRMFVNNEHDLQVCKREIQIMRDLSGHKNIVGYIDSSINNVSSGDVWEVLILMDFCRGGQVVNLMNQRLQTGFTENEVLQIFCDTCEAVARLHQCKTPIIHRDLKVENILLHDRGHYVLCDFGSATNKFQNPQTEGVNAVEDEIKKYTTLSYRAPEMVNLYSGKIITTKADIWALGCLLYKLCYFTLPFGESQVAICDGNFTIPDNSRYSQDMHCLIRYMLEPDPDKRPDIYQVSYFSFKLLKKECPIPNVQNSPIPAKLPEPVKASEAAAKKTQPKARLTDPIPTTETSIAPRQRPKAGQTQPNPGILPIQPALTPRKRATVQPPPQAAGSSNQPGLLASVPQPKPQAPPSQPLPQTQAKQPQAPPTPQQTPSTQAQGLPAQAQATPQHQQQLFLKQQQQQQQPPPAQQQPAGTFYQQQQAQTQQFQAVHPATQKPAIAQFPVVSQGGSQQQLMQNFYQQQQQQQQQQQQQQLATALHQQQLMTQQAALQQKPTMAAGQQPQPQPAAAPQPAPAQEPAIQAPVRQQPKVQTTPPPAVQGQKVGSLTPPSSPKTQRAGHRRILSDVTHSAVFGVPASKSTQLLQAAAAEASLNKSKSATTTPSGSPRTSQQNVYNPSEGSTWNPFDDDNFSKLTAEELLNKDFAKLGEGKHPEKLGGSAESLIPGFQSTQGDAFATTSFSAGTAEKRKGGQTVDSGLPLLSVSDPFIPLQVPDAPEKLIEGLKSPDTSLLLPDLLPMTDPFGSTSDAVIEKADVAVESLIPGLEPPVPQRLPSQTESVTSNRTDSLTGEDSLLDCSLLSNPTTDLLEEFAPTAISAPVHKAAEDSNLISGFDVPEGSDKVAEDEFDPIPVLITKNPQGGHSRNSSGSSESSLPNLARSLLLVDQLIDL

[4] = molecular target: protein kinases (human kinome) (Homo sapiens, UniProt P11802)
protein kinases (human kinome) (Homo sapiens, UniProt P11802), sequence (P11802 whole entry): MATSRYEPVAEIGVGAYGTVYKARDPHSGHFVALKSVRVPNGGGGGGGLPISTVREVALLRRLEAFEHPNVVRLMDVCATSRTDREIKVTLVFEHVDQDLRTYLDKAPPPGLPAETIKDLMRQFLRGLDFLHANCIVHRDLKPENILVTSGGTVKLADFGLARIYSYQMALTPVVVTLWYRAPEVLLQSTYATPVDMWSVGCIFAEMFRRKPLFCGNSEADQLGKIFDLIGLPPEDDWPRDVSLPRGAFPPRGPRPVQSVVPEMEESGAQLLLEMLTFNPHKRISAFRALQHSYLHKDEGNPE

[5] = molecular target: T2, protein kinases (human kinome) (Homo sapiens, UniProt O75385); details: for logFC: ULK1 (O75385) protein abundance, degrader vs DMSO, down; for logFC ULK1: ULK1 O75385
T2 sequence (O75385 1-1050): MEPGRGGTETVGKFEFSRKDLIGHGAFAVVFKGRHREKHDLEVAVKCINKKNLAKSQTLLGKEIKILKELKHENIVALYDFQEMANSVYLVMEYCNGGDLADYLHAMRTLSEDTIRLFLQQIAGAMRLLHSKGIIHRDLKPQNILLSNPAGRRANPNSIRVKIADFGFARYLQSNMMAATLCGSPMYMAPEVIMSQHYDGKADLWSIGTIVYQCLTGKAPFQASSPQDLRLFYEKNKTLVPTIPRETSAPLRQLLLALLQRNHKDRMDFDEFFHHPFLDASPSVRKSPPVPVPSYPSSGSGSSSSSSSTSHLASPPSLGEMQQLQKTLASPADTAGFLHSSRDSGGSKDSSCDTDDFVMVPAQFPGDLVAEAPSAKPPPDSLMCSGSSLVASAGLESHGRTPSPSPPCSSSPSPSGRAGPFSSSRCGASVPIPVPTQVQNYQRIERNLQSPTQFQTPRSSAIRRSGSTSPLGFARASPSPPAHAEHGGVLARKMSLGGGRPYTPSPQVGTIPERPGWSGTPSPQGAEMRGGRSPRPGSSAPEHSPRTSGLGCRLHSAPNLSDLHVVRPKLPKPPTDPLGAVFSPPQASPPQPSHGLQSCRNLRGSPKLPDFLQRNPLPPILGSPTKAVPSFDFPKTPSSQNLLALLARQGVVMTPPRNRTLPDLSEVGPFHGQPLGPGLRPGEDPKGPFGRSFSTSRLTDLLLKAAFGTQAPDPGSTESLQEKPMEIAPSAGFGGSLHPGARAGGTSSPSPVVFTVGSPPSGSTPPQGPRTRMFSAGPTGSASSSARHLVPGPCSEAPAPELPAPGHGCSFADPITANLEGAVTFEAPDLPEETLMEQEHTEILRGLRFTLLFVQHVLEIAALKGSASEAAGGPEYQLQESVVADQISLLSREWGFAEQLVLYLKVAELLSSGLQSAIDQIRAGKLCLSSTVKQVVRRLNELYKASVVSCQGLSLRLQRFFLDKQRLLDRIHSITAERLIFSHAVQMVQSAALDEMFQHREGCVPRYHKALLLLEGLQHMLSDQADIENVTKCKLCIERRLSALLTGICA

[6] = molecular target: protein kinases (human kinome) (Homo sapiens, UniProt P30291)
protein kinases (human kinome) (Homo sapiens, UniProt P30291), sequence (P30291 whole entry): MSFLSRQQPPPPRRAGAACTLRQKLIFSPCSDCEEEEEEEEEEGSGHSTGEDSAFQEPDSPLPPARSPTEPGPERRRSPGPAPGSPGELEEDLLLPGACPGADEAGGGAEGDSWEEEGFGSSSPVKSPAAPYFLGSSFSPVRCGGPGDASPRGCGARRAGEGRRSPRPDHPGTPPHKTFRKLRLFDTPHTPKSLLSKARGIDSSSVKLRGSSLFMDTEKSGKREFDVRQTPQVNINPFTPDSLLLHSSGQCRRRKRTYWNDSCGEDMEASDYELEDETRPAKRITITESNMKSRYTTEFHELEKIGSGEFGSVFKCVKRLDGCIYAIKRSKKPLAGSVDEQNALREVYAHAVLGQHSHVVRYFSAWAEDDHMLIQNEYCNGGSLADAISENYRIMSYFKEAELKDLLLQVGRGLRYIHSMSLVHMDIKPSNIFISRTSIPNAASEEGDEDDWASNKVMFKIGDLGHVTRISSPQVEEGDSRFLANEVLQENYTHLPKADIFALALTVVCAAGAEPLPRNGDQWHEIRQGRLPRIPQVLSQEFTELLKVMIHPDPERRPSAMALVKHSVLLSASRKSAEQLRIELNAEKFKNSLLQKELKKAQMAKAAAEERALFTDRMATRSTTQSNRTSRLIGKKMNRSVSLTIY

[7] = molecular target: protein kinases (human kinome) (Homo sapiens, UniProt P16591); details: for logFC of FER (P16591-1): down; for logFC of FER: FER P16591-1
protein kinases (human kinome) (Homo sapiens, UniProt P16591), sequence (P16591 whole entry): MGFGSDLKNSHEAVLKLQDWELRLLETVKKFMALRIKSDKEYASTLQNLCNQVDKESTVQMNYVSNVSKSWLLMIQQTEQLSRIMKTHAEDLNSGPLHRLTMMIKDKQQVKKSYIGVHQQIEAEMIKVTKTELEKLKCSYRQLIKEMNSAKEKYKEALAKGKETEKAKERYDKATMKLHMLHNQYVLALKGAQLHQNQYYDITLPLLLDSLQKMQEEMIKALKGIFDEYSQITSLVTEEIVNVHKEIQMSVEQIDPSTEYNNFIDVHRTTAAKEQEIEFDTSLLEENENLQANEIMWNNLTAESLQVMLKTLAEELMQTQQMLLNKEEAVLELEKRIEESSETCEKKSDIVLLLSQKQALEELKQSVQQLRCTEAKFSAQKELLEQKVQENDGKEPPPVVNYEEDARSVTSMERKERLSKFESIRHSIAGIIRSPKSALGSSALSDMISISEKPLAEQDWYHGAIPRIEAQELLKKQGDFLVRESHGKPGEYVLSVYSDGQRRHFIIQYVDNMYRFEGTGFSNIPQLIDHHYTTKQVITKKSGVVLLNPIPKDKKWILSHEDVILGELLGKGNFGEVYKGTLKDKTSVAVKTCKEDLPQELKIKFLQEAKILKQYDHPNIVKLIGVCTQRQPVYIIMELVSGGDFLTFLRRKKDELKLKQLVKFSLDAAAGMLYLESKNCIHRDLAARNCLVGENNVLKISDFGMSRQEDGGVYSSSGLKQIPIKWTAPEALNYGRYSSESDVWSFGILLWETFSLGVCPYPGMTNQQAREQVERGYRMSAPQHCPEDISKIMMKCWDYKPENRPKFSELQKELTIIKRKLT

[8] = CAMKK1 (Q8N5S9-2), experiment wp045
[9] = AAK1 (Q2M218-1), experiment wp045, down
[10] = AAK1, accession Q2M218-1, experiment wp045, direction of change down

SMILES	logFC AURKA (O14965) ([1]; experiment wp045)	logFC [2, 8]	logFC of CAMKK1 (Q8N5S9-2) ([2]; Experiment wp045)	kinases the bifunctional compound degrades [2]	Kinase hits [2]	Total no. kinase hits [2]	logFC AAK1 [3, 9]	logFC AAK1 [3, 10]	logFC CDK4 (P11802) ([4]; experiment wp045)	logFC [5]	logFC ULK1 ([5]; experiment wp045)	logFC WEE1 (P30291-1) ([6]; experiment wp045)	further results
CS(=O)(=O)Nc1cccc(-c2csc3cnc(Nc4ccc(N5CCN(CCOCCOCCOc6cccc7c6C(=O)N(C6CCC(=O)NC6=O)C7=O)CC5)cc4)nc23)c1 (centres unmarked) [RSS0628]	−1.13	−0.3412	−0.3412	AAK1. AURKA, CAMKK1, CDK4, CDK6, LIMK2, NEK9, PTK2B, STK17A, STK17B, ULK1, ULK3, and WEE1	AAK1, AURKA, CAMKK1, CDK4, CDK6, LIMK2, NEK9, PTK2B, STK17A, STK17B, ULK1, ULK3, WEE1	13	−1.24	−1.24	−1.422	−0.5583	−0.5583	−1.578	
CS(=O)(=O)Nc1cccc(-c2csc3cnc(Nc4ccc(N5CCN(CCCCCOc6cccc7c6C(=O)N(C6CCC(=O)NC6=O)C7=O)CC5)cc4)nc23)c1 (centres unmarked) [DB0614, N-(3-(2-((4-(4-(5-((2-(2,6-Dioxopiperidin-3-yl)-1,3-dioxoisoindolin-4-yl)oxy)pentyl)piperazin-1-yl)phenyl)amino)thieno[3,2-d]pyrimidin-7-yl)phenyl)methanesulfonamide]	−0.385	−0.6487	−0.6487	AAK1, AURKA, BMP2K, CAMKK1, CDK16, CDK4, CDK6, EIF2AK2, FER, GAK, LCK, LIMK2, MAP3K11, MAPK8, MAPK9, NEK9, PLK4, PTK2B, SIK2, STK17A, STK17B, ULK1, ULK3, and WEE1	AAK1, AURKA, BMP2K, CAMKK1, CDK16, CDK4, CDK6, EIF2AK2, FER, GAK, LCK, LIMK2, MAP3K11, MAPK8, MAPK9, NEK9, PLK4, PTK2B, SIK2, STKI7A, STKI7B, ULK1, ULK3, WEE1	24	−1.863	−1.863	−1.539	−0.869 and −1.105	−0.869	−1.876	logFC AURKA (O14965) ([1]; experiment wp117): −0.4547; logFC MAPK8 (P45983-4) ([2]; Experiment wp045, direction down): −0.6882; logFC of MAPK8 (P45983-2) ([2]; Experiment wp117): −0.6328; logFC MAPK8 (P45983-2) ([2]; Experiment wp117, direction down): −0.6328; logFC LCK ([2]; LCK, accession P06239-3, experiment wp045, direction of change down): −0.33; logFC MAPK8 ([2]; MAPK8 P45983-4, experiment wp045): −0.6882; logFC ([2]; PTK2B (Q14289-2), experiment wp117, direction down): −1.203; logFC PTK2B ([2]; PTK2B, accession Q14289-2, experiment wp117, direction of change down): −1.203; logFC LCK (P06239-3) ([2]; experiment wp045, direction of change down): −0.33; logFC CDK16 (Q00536-2) ([2]; experiment wp117): −0.5528; logFC AAK1 ([3]; AAK1 (Q2M218-1), experiment wp117, down): −1.652; logFC AAK1 ([3]; AAK1, accession Q2M218-1, experiment wp117, direction of change down): −1.662; logFC CDK4 (P11802) ([4]; experiment wp117): −1.539; logFC ULK1 ([5]; experiment wp117): −1.105; logFC of WEE1 ([6]; WEE1 P30291-1, experiment wp117): −1.777; logFC WEE1 (P30291-1) ([6]; experiment wp117): −1.777; logFC of FER (P16591-1) ([7]; Experiment wp045): −0.7641; logFC of FER (P16591-1) ([7]; Experiment wp117): −0.7725; logFC of FER ([7]; experiment wp045): −0.7641; logFC of FER ([7]; experiment wp117): −0.7725
